Converted amounts (≈) assume the structure as drawn.
What was measured:
[1] = molecular target: Voltage-gated inwardly rectifying potassium channel KCNH2 (Homo sapiens, UniProt Q12809); assay: Displacement of [35S]-MK-499 from hERG expressed in HEK293 cells […]; assay type: toxicity, cell-based
[2] = Solubility of the compound at pH 7; assay type: physicochemical; conditions: buffer
P-gp (ABCB1) = P-gp (ABCB1) (Rattus norvegicus, UniProt P43245); assay: Substrate activity at rat P-gp […] in […] LLC-MDR1 cells assessed as efflux ratio of apparent permeability across basolateral to apical over apical to basolateral side; assay type: ADME, cell-based, LLC-MDR1 cell; conditions: LLC-PK1
PXR (NR1I2) = molecular target: T1, PXR (NR1I2) (Homo sapiens, UniProt O75469); assay: Agonist activity at PXR (unknown origin) assessed as maximal efficacy at 30 uM
T1 sequence (O75469 whole entry): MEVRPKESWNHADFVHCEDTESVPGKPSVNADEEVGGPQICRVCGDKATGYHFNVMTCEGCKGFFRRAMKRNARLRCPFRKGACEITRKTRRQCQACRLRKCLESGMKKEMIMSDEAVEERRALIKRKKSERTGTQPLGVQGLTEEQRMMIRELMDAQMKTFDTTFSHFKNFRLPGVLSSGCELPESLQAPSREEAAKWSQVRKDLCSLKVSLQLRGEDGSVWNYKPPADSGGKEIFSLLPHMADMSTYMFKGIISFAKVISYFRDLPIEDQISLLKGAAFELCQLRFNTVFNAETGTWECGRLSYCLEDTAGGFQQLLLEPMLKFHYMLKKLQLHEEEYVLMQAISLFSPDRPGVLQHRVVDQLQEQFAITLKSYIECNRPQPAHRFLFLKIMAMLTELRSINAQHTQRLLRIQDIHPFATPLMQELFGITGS

[3] = molecular target: T2, Nuclear receptor subfamily 1 group I member 2 (Homo sapiens, UniProt O75469); assay: Agonist activity at PXR (unknown origin)
T2 sequence (O75469 whole entry): T1 sequence (O75469 whole entry)

[4] = Apparent permeability in […] LLC-MDR1 cell; assay type: ADME, cell-based; conditions: LLC-PK1
[5] = molecular target: Metabotropic glutamate receptor 2 (Homo sapiens, UniProt Q14416); assay: Negative allosteric modulation at human mGluR2 receptor stably expressed in DHFR null CHO cells co-expressing Galpha16 assessed as effect on intracellular calcium flux measured after 5 min by Fluo-4AM dye based FLIPR analysis; assay type: functional, cell-based
[6] = Oral bioavailability in rat; assay type: ADME, organism-based; conditions: in vivo
[7] = molecular target: Metabotropic glutamate receptor 3 (Homo sapiens, UniProt Q14832); assay: Negative allosteric modulation at mGluR3 receptor (unknown origin) assessed as effect on intracellular calcium flux measured after 5 min by Fluo-4AM dye based FLIPR analysis; assay type: functional, cell-based
[8] = molecular target: Voltage-dependent L-type calcium channel subunit alpha-1C (Homo sapiens, UniProt Q13936); assay: Inhibition of Cav1.2 (unknown origin)
[9] = Oral bioavailability in rat at 20 mg/kg; assay type: ADME, organism-based; conditions: in vivo
[10] = molecular target: Sodium channel protein type 5 subunit alpha (Homo sapiens, UniProt Q14524); assay: Inhibition of NaV 1.5 channel (unknown origin) by automated patch-clamp assay

Chain of Metabotropic glutamate receptor 2 (Q14416 whole entry): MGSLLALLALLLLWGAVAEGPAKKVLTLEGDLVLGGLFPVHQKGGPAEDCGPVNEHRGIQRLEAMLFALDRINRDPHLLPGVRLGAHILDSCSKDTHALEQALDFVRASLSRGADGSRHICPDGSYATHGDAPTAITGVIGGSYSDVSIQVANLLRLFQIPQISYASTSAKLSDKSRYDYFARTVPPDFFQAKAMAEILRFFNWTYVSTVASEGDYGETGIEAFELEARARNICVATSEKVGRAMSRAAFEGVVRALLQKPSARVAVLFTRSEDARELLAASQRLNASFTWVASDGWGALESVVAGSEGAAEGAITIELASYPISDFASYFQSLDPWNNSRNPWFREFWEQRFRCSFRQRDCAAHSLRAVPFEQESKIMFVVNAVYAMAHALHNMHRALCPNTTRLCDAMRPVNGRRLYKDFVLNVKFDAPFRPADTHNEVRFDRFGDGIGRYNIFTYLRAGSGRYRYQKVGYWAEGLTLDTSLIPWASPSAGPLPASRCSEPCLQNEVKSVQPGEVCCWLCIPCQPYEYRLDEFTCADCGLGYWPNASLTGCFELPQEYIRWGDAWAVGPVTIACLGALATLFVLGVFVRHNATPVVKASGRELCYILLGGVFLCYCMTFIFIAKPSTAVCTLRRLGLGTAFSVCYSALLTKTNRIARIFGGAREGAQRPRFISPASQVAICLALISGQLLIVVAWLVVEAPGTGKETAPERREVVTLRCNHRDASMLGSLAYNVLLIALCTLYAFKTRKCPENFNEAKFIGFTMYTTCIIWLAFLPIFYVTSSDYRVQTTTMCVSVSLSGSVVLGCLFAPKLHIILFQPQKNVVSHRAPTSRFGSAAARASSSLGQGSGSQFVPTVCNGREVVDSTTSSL
Chain of Voltage-gated inwardly rectifying potassium channel KCNH2 (Q12809 whole entry): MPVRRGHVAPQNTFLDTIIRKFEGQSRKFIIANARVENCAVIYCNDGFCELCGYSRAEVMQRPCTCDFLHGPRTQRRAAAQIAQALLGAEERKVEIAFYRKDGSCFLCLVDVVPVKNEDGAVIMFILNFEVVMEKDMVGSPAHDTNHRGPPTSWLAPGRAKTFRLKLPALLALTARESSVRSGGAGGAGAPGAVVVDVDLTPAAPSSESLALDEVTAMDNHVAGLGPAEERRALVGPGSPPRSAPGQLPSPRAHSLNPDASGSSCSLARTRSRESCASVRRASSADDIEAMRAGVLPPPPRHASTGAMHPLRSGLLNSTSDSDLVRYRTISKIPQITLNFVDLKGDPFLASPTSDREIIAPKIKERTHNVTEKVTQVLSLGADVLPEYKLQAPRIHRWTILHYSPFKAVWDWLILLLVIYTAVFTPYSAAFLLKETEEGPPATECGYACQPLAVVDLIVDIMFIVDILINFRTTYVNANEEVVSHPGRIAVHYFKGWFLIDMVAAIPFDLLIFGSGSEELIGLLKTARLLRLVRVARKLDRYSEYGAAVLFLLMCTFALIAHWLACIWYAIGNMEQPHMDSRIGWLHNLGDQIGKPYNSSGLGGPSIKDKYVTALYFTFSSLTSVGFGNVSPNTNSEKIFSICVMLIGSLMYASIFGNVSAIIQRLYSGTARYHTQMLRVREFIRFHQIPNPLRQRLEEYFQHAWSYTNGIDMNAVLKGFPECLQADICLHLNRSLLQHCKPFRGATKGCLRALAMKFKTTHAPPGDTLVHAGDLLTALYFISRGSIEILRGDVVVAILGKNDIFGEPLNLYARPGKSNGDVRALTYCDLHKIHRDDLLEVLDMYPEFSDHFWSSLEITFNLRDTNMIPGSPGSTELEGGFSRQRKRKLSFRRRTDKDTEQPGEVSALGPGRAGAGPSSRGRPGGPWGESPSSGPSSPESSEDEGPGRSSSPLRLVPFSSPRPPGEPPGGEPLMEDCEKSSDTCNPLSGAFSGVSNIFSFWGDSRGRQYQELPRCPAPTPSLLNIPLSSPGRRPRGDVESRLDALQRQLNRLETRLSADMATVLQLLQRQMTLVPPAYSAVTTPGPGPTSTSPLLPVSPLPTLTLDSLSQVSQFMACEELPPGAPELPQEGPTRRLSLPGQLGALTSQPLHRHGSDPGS
Chain of P-gp (ABCB1) (P43245 whole entry): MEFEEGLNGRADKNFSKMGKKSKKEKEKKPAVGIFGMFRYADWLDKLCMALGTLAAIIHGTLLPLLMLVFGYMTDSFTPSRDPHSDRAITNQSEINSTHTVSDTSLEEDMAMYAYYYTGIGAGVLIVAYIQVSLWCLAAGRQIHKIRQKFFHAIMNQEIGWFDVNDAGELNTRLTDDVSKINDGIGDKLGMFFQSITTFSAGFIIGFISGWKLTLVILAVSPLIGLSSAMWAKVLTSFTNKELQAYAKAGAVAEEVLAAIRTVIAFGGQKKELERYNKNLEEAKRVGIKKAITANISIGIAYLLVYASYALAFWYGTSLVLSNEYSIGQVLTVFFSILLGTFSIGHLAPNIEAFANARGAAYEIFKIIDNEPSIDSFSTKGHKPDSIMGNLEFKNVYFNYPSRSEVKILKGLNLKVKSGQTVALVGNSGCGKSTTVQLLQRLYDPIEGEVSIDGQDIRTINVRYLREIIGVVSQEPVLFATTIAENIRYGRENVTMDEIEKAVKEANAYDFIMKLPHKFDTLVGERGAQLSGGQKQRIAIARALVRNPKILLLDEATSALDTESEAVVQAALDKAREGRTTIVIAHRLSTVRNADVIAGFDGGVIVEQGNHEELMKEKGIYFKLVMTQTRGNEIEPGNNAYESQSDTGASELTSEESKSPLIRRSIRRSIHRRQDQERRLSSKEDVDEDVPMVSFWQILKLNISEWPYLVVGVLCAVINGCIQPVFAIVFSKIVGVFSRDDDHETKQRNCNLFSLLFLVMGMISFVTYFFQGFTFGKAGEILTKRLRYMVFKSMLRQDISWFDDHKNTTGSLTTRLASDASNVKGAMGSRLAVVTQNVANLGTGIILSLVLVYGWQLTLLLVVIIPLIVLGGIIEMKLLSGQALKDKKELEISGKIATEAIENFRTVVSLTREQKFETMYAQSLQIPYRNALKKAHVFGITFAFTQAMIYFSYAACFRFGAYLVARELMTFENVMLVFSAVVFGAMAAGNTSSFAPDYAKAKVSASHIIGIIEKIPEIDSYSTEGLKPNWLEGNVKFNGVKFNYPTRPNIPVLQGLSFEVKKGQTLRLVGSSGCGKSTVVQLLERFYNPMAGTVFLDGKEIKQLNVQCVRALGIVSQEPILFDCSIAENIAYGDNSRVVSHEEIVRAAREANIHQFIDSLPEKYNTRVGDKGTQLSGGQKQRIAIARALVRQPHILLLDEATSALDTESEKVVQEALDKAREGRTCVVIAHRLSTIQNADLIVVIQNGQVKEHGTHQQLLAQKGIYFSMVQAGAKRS
Chain of Metabotropic glutamate receptor 3 (Q14832 whole entry): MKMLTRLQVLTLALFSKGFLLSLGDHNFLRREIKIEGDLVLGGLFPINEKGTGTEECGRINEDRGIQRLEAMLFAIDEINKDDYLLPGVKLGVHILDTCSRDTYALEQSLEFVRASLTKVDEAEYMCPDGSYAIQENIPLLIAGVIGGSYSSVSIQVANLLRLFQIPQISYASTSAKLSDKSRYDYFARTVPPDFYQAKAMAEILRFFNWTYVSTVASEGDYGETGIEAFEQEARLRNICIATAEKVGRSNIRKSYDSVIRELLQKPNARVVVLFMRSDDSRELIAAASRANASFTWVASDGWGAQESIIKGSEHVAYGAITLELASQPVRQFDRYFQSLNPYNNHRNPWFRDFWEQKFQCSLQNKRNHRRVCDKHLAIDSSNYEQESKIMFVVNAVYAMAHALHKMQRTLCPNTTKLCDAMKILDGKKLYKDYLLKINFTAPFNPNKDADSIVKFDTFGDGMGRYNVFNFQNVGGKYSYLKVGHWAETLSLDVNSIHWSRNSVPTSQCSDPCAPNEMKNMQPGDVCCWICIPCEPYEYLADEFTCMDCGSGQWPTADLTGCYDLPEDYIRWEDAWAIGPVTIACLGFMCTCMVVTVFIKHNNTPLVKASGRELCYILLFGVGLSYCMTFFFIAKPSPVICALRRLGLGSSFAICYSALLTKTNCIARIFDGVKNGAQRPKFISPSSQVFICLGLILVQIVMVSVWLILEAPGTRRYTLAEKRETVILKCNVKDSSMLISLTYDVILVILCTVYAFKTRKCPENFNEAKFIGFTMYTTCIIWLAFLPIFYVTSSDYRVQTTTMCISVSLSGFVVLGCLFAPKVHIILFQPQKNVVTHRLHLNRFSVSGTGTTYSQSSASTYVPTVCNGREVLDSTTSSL

Row | Compound | IC50 [1] | solubility ([2]; read-out: solubility) | Emax at 30 µM (PXR (NR1I2)) | EC50 [3] | Papp [4] | further results
1 | CC(C)C1CN(Cc2ccc3c(-c4cnn(C)c4)cc(C(N)=O)nc3c2)CCO1 (racemic) | 23 µM | 142 µM (≈ 55.9 µg/mL) | 51% | 29 µM | 34 ×10⁻⁶ cm/s | efflux ratio (P-gp (ABCB1)): 1.3; IC50 [5]: 0.023 µM
2 | Cn1cc(-c2cc(C(N)=O)nc3cc(CN4C(=O)CCC4=O)ccc23)cn1 |  | 162 µM (≈ 58.9 µg/mL) |  |  | 30 ×10⁻⁶ cm/s | 
3 | CC1CCN(c2cc(C(N)=O)nc3cc(CN4C(=O)CCC4=O)ccc23)CC1 |  | < 2 µM |  |  |  | 
4 | Cn1cc(Cc2ccc3c(-c4ccc(F)cc4)cc(C(N)=O)nc3c2)cn1 | 3.5 µM | 4 µM (≈ 1.44 µg/mL) | 21% | > 30 µM | 31 ×10⁻⁶ cm/s | 
5 | Cc1cnn(Cc2ccc3c(-c4ccc(F)cc4)cc(C(N)=O)nc3c2)c1 | 1.9 µM | < 2 µM | 53% | 16.7 µM | 27 ×10⁻⁶ cm/s | 
6 | CC1CN(Cc2ccc3c(-c4cnn(C)c4)cc(C(N)=O)nc3c2)CCO1 (racemic) | > 60 µM | 175 µM (≈ 64 µg/mL) | 1% | > 30 µM |  | 
7 | NC(=O)c1cc(-c2ccc(F)cc2)c2ccc(CN3C(=O)CCC3=O)cc2n1 |  |  |  |  |  | solubility [2]: 4 µM (≈ 1.51 µg/mL); bioavailability [6]: 100%
8 | NC(=O)c1cc(-c2ccc(F)cc2)c2ccc(CN3CCNC(C(F)(F)F)C3)cc2n1 (racemic) | 11.2 µM | 105 µM (≈ 45.4 µg/mL) |  |  | 27 ×10⁻⁶ cm/s | 
9 | Cn1ccc(CCc2ccc3c(-c4ccc(F)cc4)cc(C(N)=O)nc3c2)n1 | 2.9 µM | < 1 µM | 97% | 9.2 µM | 25 ×10⁻⁶ cm/s | 
10 | Cc1ccn(-c2cc(C(N)=O)nc3cc(CN4C(=O)CCC4=O)ccc23)n1 | > 60 µM | 46 µM (≈ 16.7 µg/mL) |  |  | 30 ×10⁻⁶ cm/s | efflux ratio (P-gp (ABCB1)): 18; IC50 [5]: > 5 µM
11 | Cc1ncc(-c2cc(C(N)=O)nc3cc(CN4C(=O)CCC4=O)ccc23)s1 | > 60 µM | 64 µM (≈ 24.3 µg/mL) | 137% | 6 µM |  | 
12 | Cn1cc(-c2cc(C(N)=O)nc3cc(CN4CCO[C@@H](C(F)(F)F)C4)ccc23)cn1 | > 60 µM | 142 µM (≈ 59.6 µg/mL) |  |  | 29 ×10⁻⁶ cm/s | IC50 [7]: 7.8 µM; IC50 [8]: 22 µM; bioavailability [9]: 100%; IC50 [10]: > 30 µM
13 | NC(=O)c1cc(-c2ccc(F)cc2)c2ccc(CNCC(F)(F)F)cc2n1 | 10.2 µM | 6 µM (≈ 2.26 µg/mL) | 50% | > 30 µM | 24 ×10⁻⁶ cm/s | 
14 | CC(C)(C(=O)N1CCOCC1)c1ccc2c(-c3ccc(F)cc3)cc(C(N)=O)nc2c1 | 20.6 µM | 143 µM (≈ 60.3 µg/mL) |  |  | 32 ×10⁻⁶ cm/s | 
15 | NC(=O)c1cc(-c2ccc(F)cc2)c2ccc(CN3CCOC(C(F)(F)F)C3)cc2n1 (racemic) | 5.5 µM | 2 µM (≈ 0.867 µg/mL) |  |  | 24 ×10⁻⁶ cm/s | 
16 | CN1CC=C(c2cc(C(N)=O)nc3cc(CN4C(=O)CCC4=O)ccc23)CC1 |  | 203 µM (≈ 76.8 µg/mL) |  |  | 38 ×10⁻⁶ cm/s | efflux ratio (P-gp (ABCB1)): 19; IC50 [5]: 4.03 µM
17 | Cc1cc(NCc2ccc3c(-c4ccc(F)cc4)cc(C(N)=O)nc3c2)no1 | 3.3 µM | 3 µM (≈ 1.13 µg/mL) | 49% | > 30 µM | 30 ×10⁻⁶ cm/s | 
18 | Cn1cc(-c2cc(C(N)=O)nc3cc(CN4CCOC(C(F)(F)F)C4)ccc23)cn1 (racemic) | 19 µM | 132 µM (≈ 55.4 µg/mL) |  |  | 30 ×10⁻⁶ cm/s | 

Row | Compound | IC50 [1] | solubility ([2]; read-out: solubility) | Emax at 30 µM (PXR (NR1I2)) | EC50 [3] | Papp [4] | further results
19 | CC(c1ccc2c(-c3cnn(C)c3)cc(C(N)=O)nc2c1)c1cnn(CC(F)(F)F)c1 (racemic) | 10 µM | 107 µM (≈ 45.8 µg/mL) | 75% | 19 µM | 29 ×10⁻⁶ cm/s | efflux ratio (P-gp (ABCB1)): 18; IC50 [5]: 0.011 µM
20 | CCn1cc(-c2cc(C(N)=O)nc3cc(CN4C(=O)CCC4=O)ccc23)cn1 | 27 µM | 150 µM (≈ 56.6 µg/mL) |  |  | 24 ×10⁻⁶ cm/s | 
21 | Cn1cc(-c2cc(C(N)=O)nc3cc(CN4CCNC(C(F)(F)F)C4)ccc23)cn1 (racemic) | > 20 µM | 175 µM (≈ 73.2 µg/mL) |  |  | 29 ×10⁻⁶ cm/s | IC50 [5]: 0.122 µM
22 | CC1CC=C(c2cc(C(N)=O)nc3cc(CN4C(=O)CCC4=O)ccc23)CC1 (racemic) | 27 µM | < 1 µM | 115% | 0.6 µM | 33 ×10⁻⁶ cm/s | 
23 | Cn1cc(Cc2ccc3c(-c4cnn(C)c4)cc(C(N)=O)nc3c2)cn1 | > 60 µM | 105 µM (≈ 36.4 µg/mL) |  |  | 36 ×10⁻⁶ cm/s | 
24 | Cc1ncc(CCc2ccc3c(-c4cnn(C)c4)cc(C(N)=O)nc3c2)cn1 | > 60 µM | 141 µM (≈ 52.5 µg/mL) |  |  | 30 ×10⁻⁶ cm/s | 
25 | NC(=O)c1cc(-c2ccc(F)cc2)c2ccc(CN3CCOC3=O)cc2n1 | 14 µM | 127 µM (≈ 46.4 µg/mL) | 95% | 9.7 µM | 36 ×10⁻⁶ cm/s | 
26 | NC(=O)c1cc(N2CCOCC2)c2ccc(CN3C(=O)CCC3=O)cc2n1 | 17 µM | 157 µM (≈ 57.8 µg/mL) |  |  | 35 ×10⁻⁶ cm/s | 
27 | COC1CC=C(c2cc(C(N)=O)nc3cc(CN4C(=O)CCC4=O)ccc23)CC1 (racemic) | > 60 µM | 125 µM (≈ 49.2 µg/mL) |  |  | 32 ×10⁻⁶ cm/s | 
28 | CN(C)C(=O)C(C)(C)c1ccc2c(-c3ccc(F)cc3)cc(C(N)=O)nc2c1 | 40 µM | < 2 µM | 110% | 3.5 µM | 38 ×10⁻⁶ cm/s | 
29 | Cc1cnn(-c2cc(C(N)=O)nc3cc(CN4C(=O)CCC4=O)ccc23)c1 |  | 99 µM (≈ 36 µg/mL) | 54% | > 30 µM |  | 
30 | Cc1ncc(NCc2ccc3c(-c4ccc(F)cc4)cc(C(N)=O)nc3c2)cn1 | 6.2 µM | 7 µM (≈ 2.71 µg/mL) | 1% | > 30 µM | 31 ×10⁻⁶ cm/s | 
31 | CC1CN(Cc2ccc3c(-c4ccc(F)cc4)cc(C(N)=O)nc3c2)CCO1 (racemic) | 5.5 µM | 103 µM (≈ 39.1 µg/mL) | 26% | > 30 µM |  | 
32 | NC(=O)c1cc(-c2ccc(F)cc2)c2ccc(C(N3CCOCC3)C(F)(F)F)cc2n1 (racemic) | 11.2 µM | < 2 µM |  |  | 28 ×10⁻⁶ cm/s | IC50 [5]: 0.041 µM
33 | Cn1cc(-c2cc(C(N)=O)nc3cc(CN4CCOC(C(F)F)C4)ccc23)cn1 (racemic) |  | 193 µM (≈ 77.5 µg/mL) |  |  |  | IC50 [5]: 0.067 µM
34 | NC(=O)c1cc(-c2ccc(F)cc2)c2ccc(CCc3cncnc3)cc2n1 | > 60 µM | < 1 µM | 47% | > 30 µM | 31 ×10⁻⁶ cm/s | 
35 | Cn1cc(-c2cc(C(N)=O)nc3cc(CN4CCOC(C5CC5)C4)ccc23)cn1 (racemic) | 51 µM | 175 µM (≈ 68.5 µg/mL) |  |  | 29 ×10⁻⁶ cm/s | IC50 [5]: 0.032 µM

Reference: ChEMBL document CHEMBL5360658, “Discovery of MK-8768, a Potent and Selective mGluR2 Negative Allosteric Modulator” (ACS Med Chem Lett, 2023)
